Results published in PMC6155365, “A Phase 3 Study of Micafungin Versus Amphotericin B Deoxycholate in Infants With Invasive Candidiasis” (The Pediatric Infectious Disease Journal, 2018).
In brackets after ≈: the same amount, converted by molar mass. Where two headings read alike, the source gives them in different places. *1 amine or outer side, *2 acyl side, *3 side chain or, on linkers, in order; H or OH if unused. Where a SMILES comes first, the peptide text is derived from it. Bridges are numbered along the chain shown (N, C = ends). [ ]: non-standard residue; d: D form. The star is where a group is joined. hTyr(3S-OH,4S-OH,3'-OSO3H) = N[C@H](C(=O)O)[C@H](O)[C@@H](O)c1ccc(O)c(OS(=O)(=O)O)c1; Orn(4R-OH,5R-OH) = O=C([C@H](C[C@@H](O)[C@@H](O)N[*:3])N[*:1])[*:2]; Pro(3S-OH,4S-Me) = C[C@H]1CN[C@H](C(=O)O)[C@H]1O; X1 = CCCCCOc1ccc(-c2cc(-c3ccc(C(=O)*)cc3)no2)cc1; Gln(3R-OH) = NC(=O)C[C@@H](O)[C@H](N)C(=O)O; Hyp = O=C(O)[C@@H]1C[C@@H](O)CN1

What was measured:
[1] = system: Candida spp. (invasive candidiasis); assay: Phase 3 randomized double-blind study, efficacy in infants with proven invasive candidiasis (NCT00815516); assay type: in vivo; conditions: for Early discontinuation of treatment: lack of efficacy / Infants alive at 1 week after last dose but not fungal free: MCA n = 20, AmB-D n = 10; for Positive clinical response: at end of study and 1 week after last dose, infants with signs at baseline (MCA 18, AmB-D 10); for Infants alive at 1 week after last dose but not fungal free: did not meet primary efficacy end point
Description: This was a phase 3, randomized, double-blind, multicenter, parallel-group, noninferiority study (ClinicalTrials.gov identifier: […] The follow-up was performed to capture emergent and recurrent fungal infections, to obtain a final safety evaluation and to check for resolution of those IC episodes that had not resolved by the end of treatment. […] An independent Data Review Panel reviewed and confirmed the diagnosis of IC and evaluated the efficacy outcome for each subject. Drug safety was evaluated by an unblinded Data Safety and Monitoring Board. […] FFS was defined as an infant alive and fungal free with no requirement for continued treatment with alternative antifungal therapy. […] Responses were defined as follows: complete response (resolution of all attributable signs related to fungal infection); partial response (improvement in attributable signs related to the fungal infection); stabilization (minor improvement or no change in attributable signs related to the fungal infection and the infant continued on therapy without deterioration); progression (deterioration in attributable signs related to the fungal infection or death presumably related to fungal infection). […] Persistence was defined by continued isolation or histologic documentation from a normally sterile site. […] Following positive Candida cultures, end-organ dissemination was assessed using abdominal ultrasound and/or computed tomography scanning, echocardiogram, head imaging with ultrasound, magnetic resonance imaging or computed tomography scanning or ophthalmoscopy. An emergent fungal infection was defined as a non-Candida invasive fungal infection detected at any time during the study or any invasive fungal infection detected >96 hours postbaseline involving a Candida spp. other than those detected at baseline.

[2] = Population PK of MCA, linear 2-compartment model with body weight-based allometric scaling; assay type: in vivo; conditions: Infants (this study), mean ± SD
Description: Up to 3 PK blood samples (≤300 µL) were collected from infants who participated in the PK portion of the study. A population PK approach was used to define the PK profile of MCA. A linear 2-compartment population PK model with body weight–based allometric scaling was developed in neonatal and pediatric patient populations by amending a previous model[19],[26] and including data from the current study in addition to 2 previous phase 1 studies and 1 previous phase 3 study in infants.[20],[27],[28] Individual post hoc estimates of PK parameters, simulated area under the curve (AUC) at steady state and maximum plasma concentration at the end of 2-hour infusion at once-daily dose of MCA 10 mg/kg were derived based on the model.
A population PK model was developed using data from this and 8 other studies (data on file at Astellas). A 2-compartment model with body weight–based allometric scaling and first-order elimination adequately described MCA PK data regardless of age. In this study, PK data were collected from 12 of 30 study participants (Table 2).

C. parapsilosis [3] = assay: In vitro susceptibility MIC, CLSI M27-A3; assay type: cell-based, Candida parapsilosis
Description: (§1) All fungal isolates were identified to the genus and species level using standard techniques. Briefly, each isolate was subcultured in CHROMagar Candida (Becton Dickinson and Company, Sparks, MD) and molecular identification by sequencing of the internal transcribed spacer region and/or 28S ribosomal subunit. In vitro susceptibility testing was performed on all fungal isolates collected during the study to calculate the minimum inhibitory concentrations (MICs) according to Clinical Laboratory Standards Institutes (CLSI) methodology (M27-A3) and European Committee on Antimicrobial Susceptibility Testing (EUCAST) methodology (EDef7.1).[24],[25]

C. parapsilosis [4] = assay: In vitro susceptibility MIC, EUCAST EDef7.1; assay type: cell-based, Candida parapsilosis; conditions: baseline isolate
Description: as §1

[5] = adults, 100 mg/d (approximately 2 mg/kg); cited from earlier work
Description: AmB-D has been the standard of treatment for neonatal IC in the United States for many years,[7] but nephrotoxicity is a dose-limiting toxicity.[10] […] The use of fluconazole in infants may be limited because of the resistance of some Candida spp., its frequent use as prophylaxis in extremely premature infants, its poor activity against fungal biofilms and the high doses required to reach therapeutic concentrations.[9],[ ...

invasive candidiasis = conditions: patients <16 years with IC; MCA 2 mg/kg, liposomal amphotericin B 3 mg/kg; cited from earlier work
Description: High rates of survival and successful treatment responses to MCA among patients <18 years of age with IC have been reported in prospective, observational studies.[32],[33] Success rates in pediatric studies are similar to the findings of our study in infants. For example, in a pediatric substudy from a randomized, double-blind study comparing MCA (2 mg/kg) with liposomal amphotericin B (3 mg/kg) in patients <16 years of age with IC, the investigators reported similar treatment success rates after MCA (defined as both a clinical and mycologic response at the end of therapy; 73% compared with 76 ...

[6] = premature and nonpremature infants <2 years, 9 clinical trials; cited from earlier work
Description: There was a slightly greater degree of nephrotoxicity at >25% baseline caused by AmB-D, although AmB-D-induced nephrotoxicity, defined as elevated serum creatinine, in the infant is usually reversible.[37] In understanding the relative tolerability of AmB-D in infants within the neonatal intensive care unit compared with older children, there are several hypotheses, including a greater nephronal reserve or the attention to appropriate hy ...

[7] = Adverse events, safety analysis set; conditions: for Early discontinuation of treatment: AEs / Electrolyte supplementation received: MCA n = 20, AmB-D n = 10; for Deaths: all deaths reported from the study; for Magnesium supplementation / Potassium supplementation: in vivo; for TEAE anemia / TEAE thrombocytopenia: irrespective of relatedness to study drug; for Drug-related TEAEs / Drug-related TEAEs leading to death / Drug-related serious TEAEs: possible or probable, as assessed by the investigator; for Serious TEAEs / TEAEs: safety analysis set; for TEAEs: MCA N = 20 (10 mg/kg/d), AmB-D N = 10 (1 mg/kg/d)
[8] = Clinical laboratory test findings, safety analysis set; assay type: in vivo, infants; conditions: postbaseline increase from baseline
C. glabrata [9] = assay: In vitro susceptibility MIC, CLSI M27-A3; assay type: cell-based, Candida glabrata; conditions: Nakaseomyces glabratus; baseline isolate, persistent infection in AmB-D group
Description: as §1

C. glabrata [10] = assay: In vitro susceptibility MIC, EUCAST EDef7.1; assay type: cell-based, Candida glabrata; conditions: Nakaseomyces glabratus; baseline isolate, persistent infection in AmB-D group
Description: as §1

C. albicans [11] = assay: In vitro susceptibility MIC, CLSI M27-A3; assay type: cell-based; conditions: Candida albicans
Description: as §1

C. albicans [12] = assay: In vitro susceptibility MIC, EUCAST EDef7.1; assay type: cell-based, Candida albicans; conditions: for MIC: Candida albicans
Description: as §1

[13] = in vivo
[14] = 216 h, follow-up cultures on day 9, AmB-D group infant
[15] = baseline isolate, persistent infection in AmB-D group

SMILES	Early discontinuation of treatment: lack of efficacy [1]	Positive clinical response [1]	Infants alive at 1 week after last dose but not fungal free [1]	Early discontinuation of treatment: AEs [7]	Electrolyte supplementation received [7]	TEAEs: Blood and lymphatic system disorders ([7]; MedDRA system organ class)	TEAEs: General disorders and administration site conditions ([7]; MedDRA system organ class)	TEAEs: Investigations ([7]; MedDRA system organ class)	TEAEs: Metabolism and nutrition disorders ([7]; MedDRA system organ class)	TEAEs: Respiratory, thoracic and mediastinal disorders ([7]; MedDRA system organ class)	TEAEs: Skin and subcutaneous tissue disorders ([7]; MedDRA system organ class)	TEAEs: Vascular disorders ([7]; MedDRA system organ class)	Deaths [7]	Magnesium supplementation [7]	Potassium supplementation [7]	TEAE anemia [7]	TEAE thrombocytopenia [7]	Drug-related TEAEs [7]	Drug-related TEAEs leading to death [7]	Drug-related serious TEAEs [7]	other results
CCCCCOc1ccc(-c2cc(-c3ccc(C(=O)N[C@H]4C[C@@H](O)[C@@H](O)NC(=O)[C@@H]5[C@@H](O)[C@@H](C)CN5C(=O)[C@H]([C@H](O)CC(N)=O)NC(=O)[C@H]([C@H](O)[C@@H](O)c5ccc(O)c(OS(=O)(=O)O)c5)NC(=O)[C@@H]5C[C@@H](O)CN5C(=O)[C@H]([C@@H](C)O)NC4=O)cc3)no2)cc1 [MCA, micafungin] (X1-[Orn(4R-OH,5R-OH)]T[Hyp][hTyr(3S-OH,4S-OH,3'-OSO3H)][Gln(3R-OH)][Pro(3S-OH,4S-Me)]; lactam 1-C)	1 (5%) n (%)	61%	5 (25%) n (%)	3 (15%) n (%)	6 (30%) n (%)	10 (50) n (%)	3 (15) n (%)	5 (25) n (%)	1 (5) n (%)	0 n (%)	1 (5) n (%)	3 (15) n (%)	3 (15) n (%)	3 (15%) n (%)	2 (10%) n (%)	9 (45%) n (%)	2 (10%) n (%)	11 (55) n (%)	0 n (%)	6 (30) n (%)	CL ([2]; N = 12, MCA 10 mg/kg iv, individual post hoc estimates): 0.068 ± 0.039 (0.022–0.147) L/h; CL ([2]; N = 12, MCA 10 mg/kg iv): 0.487 ± 0.200 (0.225–0.876) mL/min/kg; Vss ([2]; N = 12, MCA 10 mg/kg iv): 0.480 ± 0.159 (0.306–0.799) L/kg; t1/2 ([2]; N = 12, MCA 10 mg/kg iv): 12.25 ± 2.87 (7.51–16.92) h; AUCss ([2]; N = 12, simulated at 10 mg/kg once daily, 2-hour infusion): 399.32 ± 163.88 (190.33–742.30) μg·h/mL; C2h (steady-state plasma concentration at end of 2-hour infusion) ([2]; N = 12, simulated at 10 mg/kg, 2-hour infusion): 31.06 ± 10.53 (17.01–49.69) μg/mL; MCA MIC, CLSI (C. parapsilosis [3]; baseline isolate, persistent infection 1 of 2 in MCA group): 1 µg/mL; MCA MIC, CLSI (C. parapsilosis [3]; baseline isolate, the other persistent infection in MCA group): 1 µg/mL; MCA MIC, CLSI (C. parapsilosis [3]; follow-up isolates collected on day 19, both MCA-treated infants): 1 µg/mL; MCA MIC, EUCAST (C. parapsilosis [4]; persistent infection 1 of 2 in MCA group): 1 µg/mL; MCA MIC, EUCAST (C. parapsilosis [4]; the other persistent infection in MCA group): 0.5 µg/mL; Mean exposure (AUC) [5]: 100000 ng·h/mL; Treatment success rate (clinical and mycologic response at end of therapy) (invasive candidiasis): 73%; Treatment-related TEAEs, patients [6]: 23%; TEAEs: Infections and infestations ([7]; MedDRA system organ class): 11 (55) n (%); SAE anemia ([7]; most common SAE in the MCA group): 4 (20%) n (%); Serious TEAEs [7]: 12 (60) n (%); TEAEs [7]: 18 (90) n (%)
C[C@@H]1[C@H](O)[C@@H](C)/C=C/C=C/C=C/C=C/C=C/C=C/C=C/[C@H](O[C@@H]2O[C@H](C)[C@@H](O)[C@H](N)[C@@H]2O)C[C@@H]2O[C@](O)(C[C@@H](O)C[C@@H](O)[C@H](O)CC[C@@H](O)C[C@@H](O)CC(=O)O[C@H]1C)C[C@H](O)[C@H]2C(=O)O [AmB-D, Amphotericin B deoxycholate]	1 (10%) n (%)	70%	2 (20%) n (%)	3 (30%) n (%)	5 (50%) n (%)	6 (60) n (%)	5 (50) n (%)	3 (30) n (%)	2 (20) n (%)	3 (30) n (%)	2 (20) n (%)	3 (30) n (%)	1 (10) n (%)	2 (20%) n (%)	3 (30%) n (%)	3 (30%) n (%)	3 (30%) n (%)	5 (50) n (%)	0 n (%)	1 (10) n (%)	Clinical response: Partial ([1]; at 1 week after last dose of study drug, infants with signs at baseline): 0 n/N (%); Clinical response: Partial ([1]; end of study (30 days after last dose)): 0 n/N (%); Emergent fungal infections through end of study ([1]; full analysis set): 0 n/N (%); Serum creatinine increase >100% [8]: 0 n/N (%); MIC (C. glabrata [9]): 1 µg/mL (≈ 1.08 µM); MIC (C. glabrata [10]): 0.5 µg/mL (≈ 0.541 µM); MIC (C. albicans [11]; [14]): 1 µg/mL (≈ 1.08 µM); MIC (C. albicans [11]; [15]): 1 µg/mL (≈ 1.08 µM); MIC (C. albicans [12]; [14]): 0.25 µg/mL (≈ 0.271 µM); MIC (C. albicans [12]; [15]): 0.5 µg/mL (≈ 0.541 µM); MIC, EUCAST (C. albicans [12]; follow-up cultures on day 9, AmB-D group infant): 0.5 µg/mL (≈ 0.541 µM); TEAEs: Infections and infestations [13]: 3 (30) n (%); Serious TEAEs [7]: 7 (70) n (%); TEAEs [7]: 9 (90) n (%)
